From patent US8426353B2, “Process for preparing polyurea microcapsules” (Firmenich SA, priority 2008, dated 2013)
Read-outs that look alike come from different tables or passages of the source.

Experiments:
[1] = LogP of the perfume ingredients
[2] = GC-MS analysis of perfume leaked out of the capsules during one month storage in concentrated fabric softener; format: physicochemical; conditions: for Percentage of perfume having leaked out of the capsules upon one month storage, % In fabric softener at 22° C. / Percentage of perfume having leaked out of the capsules upon one month storage, % In fabric softener at 37° C.: perfume of Example 9 encapsulated per Example 2, capsules at 1.25%; for Percentage of perfume having leaked out of the capsules upon one month storage, % In fabric softener at 22° C.: one month at 22° C.; for Percentage of perfume having leaked out of the capsules upon one month storage, % In fabric softener at 37° C. / Percentage of ingredient having leaked out of the capsules during one month storage, % In fabric softener 37° C.: one month at 37° C.; for Percentage of ingredient having leaked out of the capsules during one month storage, % In fabric softener 37° C.: perfume of Example 6 encapsulated per Example 2, capsules at 1.25%
Method: The concentrated fabric softener base was prepared by admixing the ingredients listed in Table 4, in the amounts indicated.

[3] = GC-MS analysis of perfume leaked out of the capsules during one month storage in concentrated liquid detergent; format: physicochemical; conditions: for Percentage of perfume having leaked out of the capsules upon one month storage, % In Concentrated Liquid Detergent at 22° C. / Percentage of perfume having leaked out of the capsules upon one month storage, % In Concentrated Liquid Detergent at 37° C.: perfume of Example 9 encapsulated per Example 2, capsules at 1.25% in Tide 2x Concentrated HE Free; for Percentage of perfume having leaked out of the capsules upon one month storage, % In Concentrated Liquid Detergent at 22° C. / Percentage of ingredient having leaked out of the capsules during one month storage, % In concentrated Liquid Detergent 22° C.: one month at 22° C.; for Percentage of perfume having leaked out of the capsules upon one month storage, % In Concentrated Liquid Detergent at 37° C. / Percentage of ingredient having leaked out of the capsules during one month storage, % In concentrated Liquid Detergent 37° C.: one month at 37° C.; for Percentage of ingredient having leaked out of the capsules during one month storage, % In concentrated Liquid Detergent 22° C. / Percentage of ingredient having leaked out of the capsules during one month storage, % In concentrated Liquid Detergent 37° C.: perfume of Example 6 encapsulated per Example 2, capsules at 1.25% in Tide 2x Concentrated HE Free
From the text: The concentrated liquid detergent base was a commercially available Tide® 2× Concentrated HE Free of perfume & dye (trademark of Procter and Gamble, USA).
The concentrated liquid detergent base was the commercially available Tide® 2× Concentrated HE Free of perfume & dye (trademark of Procter and Gamble, USA).

[4] = ingredients of the perfume of Example 9 (Table 9)
[5] = ingredients of the perfume of Example 6 (Table 1)

Row | Compound | LogP [1] | Percentage of perfume having leaked out of the capsules upon one month storage, % In fabric softener at 22° C. [2] | Percentage of perfume having leaked out of the capsules upon one month storage, % In fabric softener at 37° C. [2] | Percentage of perfume having leaked out of the capsules upon one month storage, % In Concentrated Liquid Detergent at 22° C. [3] | Percentage of perfume having leaked out of the capsules upon one month storage, % In Concentrated Liquid Detergent at 37° C. [3] | LogP [1, 4] | Percentage of ingredient having leaked out of the capsules during one month storage, % In fabric softener 37° C. [2] | Percentage of ingredient having leaked out of the capsules during one month storage, % In concentrated Liquid Detergent 22° C. [3] | Percentage of ingredient having leaked out of the capsules during one month storage, % In concentrated Liquid Detergent 37° C. [3] | LogP [1, 5]
1 | CCCCCCCCCCCCCC(=O)OC(C)C [Isopropyl myristate] | 7.17 | – | – | – | – | – | – | – | – | –
2 | O=C1CCCCCCCCC/C=C/CCCO1 [Habanolide ®, pentadecenolide] | – | 0% | 0% | 0% | 0% | – | 1% | 0% | 0% | –
3 | CC1=CCC(C(C)CC2CCCC2=O)CC1 (stereo not drawn) [Nectalactone, (1′R)-2-[2-(4′-methyl-3′-cyclohexen-1′-yl)propyl]cyclopentanone] | – | – | – | – | – | – | 5% | 1% | 19% | 5.05
4 | CCCC(C)C(=O)OCC (centres unmarked) [Ethyl 2-methyl-pentanoate] | – | 48% | 99% | 48% | 99% | 2.76 | – | – | – | –
5 | O=C(OC1CCCCC1)c1ccccc1O [Cyclohexyl salicylate] | 4.87 | – | – | – | – | – | 7% | 1% | 25% | –
6 | CC1CCC(C(C)(C)O)CC1 (centres unmarked) [Dihydroterpineol] | – | 13% | 85% | 13% | – | 3.42 | – | – | – | –
7 | CC12CCC(CC1)C(C)(C)O2 [1,8-Cineole] | – | – | – | – | – | – | 11% | 2% | 21% | 3.13
8 | CC1(C)CCCC2(C)C1CCC1(C)OCCC12 (centres unmarked) [Cetalox ®, dodecahydro-3a,6,6,9a-tetramethyl-naphtho[2,1-b]furan] | – | – | – | – | – | – | 3% | 0% | 4% | –
9 | CC(=O)OC/C=C(\C)CCC=C(C)C [Geranyl acetate] | 4.48 | 10% | 53% | 10% | 77% | – | – | – | – | –
10 | CC(=O)OC(C)(C)C1CCC(C)CC1 (centres unmarked) [Dihydroterpenyl acetate] | – | 2% | 0% | 2% | 16% | 4.42 | 4% | 1% | 14% | 4.42
11 | CCCCCCC(C=O)=Cc1ccccc1 [Hexyl cinnamic aldehyde] | 4.82 | 2% | 18% | 2% | 46% | – | – | – | – | –
12 | C=CCOC(=O)COC1CCCCC1 [Cyclogalbanate, Allyl (cyclohexyloxy)-acetate] | – | 15% | 82% | 15% | – | – | – | – | – | –
13 | CC1=CC(C)C(C=O)CC1 (centres unmarked) [2,4-Dimethyl-3-cyclohexene-1-carbaldehyde] | – | 20% | 40% | 20% | 70% | – | – | – | – | –

Continued, values first:

Row | LogP [1] | Percentage of perfume having leaked out of the capsules upon one month storage, % In fabric softener at 22° C. [2] | Percentage of perfume having leaked out of the capsules upon one month storage, % In fabric softener at 37° C. [2] | Percentage of perfume having leaked out of the capsules upon one month storage, % In Concentrated Liquid Detergent at 22° C. [3] | Percentage of perfume having leaked out of the capsules upon one month storage, % In Concentrated Liquid Detergent at 37° C. [3] | LogP [1, 4] | Percentage of ingredient having leaked out of the capsules during one month storage, % In fabric softener 37° C. [2] | Percentage of ingredient having leaked out of the capsules during one month storage, % In concentrated Liquid Detergent 22° C. [3] | Percentage of ingredient having leaked out of the capsules during one month storage, % In concentrated Liquid Detergent 37° C. [3] | LogP [1, 5] | Compound
14 | – | 3% | 17% | 3% | 37% | 4.34 | – | – | – | – | Terpenyl acetate
15 | – | 3% | 13% | 3% | 27% | – | 5% | 1% | 14% | – | CC(=O)/C=C/C1=C(C)CCCC1(C)C [β-Ionone]
16 | – | 6% | 10% | 6% | 80% | 2.85 | – | – | – | – | CC(=O)OC1CC2CC1C1CC=CC21 (centres unmarked) [Verdyl acetate, Verdyl Acetate]
17 | – | 8% | 68% | 8% | 92% | 3.58 | – | – | – | – | CC(C)=CC1CC(C)CCO1 (centres unmarked) [Rose oxide]
18 | – | 3% | 10% | 3% | 16% | 4.13 | 3% | 1% | 8% | 4.13 | C/C=C/C(=O)C1C(C)C=CCC1(C)C (centres unmarked) [δ-Damascone]
19 | – | 3% | 8% | 3% | 17% | – | – | – | – | – | CC(=O)OC1CCCCC1C(C)(C)C (centres unmarked) [Verdox ®, 2-Tert-butyl-1-cyclohexyl acetate]
20 | – | – | – | – | – | – | 3% | – | – | 4.28 | CC1(O)CCC2C(=CCCC2(C)C)C1 (centres unmarked) [Octalynol]
